The values below come from ChEMBL document CHEMBL1135659, “Sulfamide-based inhibitors for carboxypeptidase A. Novel type transition state analogue inhibitors for zinc proteases” (J Med Chem, 2002).

For orientation: pKi means the negative decadic logarithm of the Ki, by convention in mol/L. Low readings indicate a high Ki, high ones a low Ki.

SMILES strings stand for the structures. pKi: −log10 of the molar value.

The experiment has as its target T1, Carboxypeptidase A1 (Bos taurus, UniProt P00730).
T1 sequence (P00730 whole entry): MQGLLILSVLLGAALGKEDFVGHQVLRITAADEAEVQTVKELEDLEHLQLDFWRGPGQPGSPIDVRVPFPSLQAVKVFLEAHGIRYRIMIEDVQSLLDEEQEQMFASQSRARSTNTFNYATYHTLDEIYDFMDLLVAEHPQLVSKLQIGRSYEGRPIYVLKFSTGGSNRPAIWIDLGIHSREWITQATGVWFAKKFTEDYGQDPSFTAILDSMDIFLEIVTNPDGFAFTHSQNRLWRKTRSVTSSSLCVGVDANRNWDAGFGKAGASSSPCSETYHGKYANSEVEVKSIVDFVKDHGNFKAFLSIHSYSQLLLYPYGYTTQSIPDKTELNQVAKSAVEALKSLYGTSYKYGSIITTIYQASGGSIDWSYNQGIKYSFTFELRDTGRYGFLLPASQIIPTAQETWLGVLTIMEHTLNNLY
As to the kind of experiment: Inhibitory activity against Carboxypeptidase A.

`NS(=O)(=O)NCC(Cc1ccccc1)C(=O)O` (stereo not drawn) gave a negative logarithm of the Ki (pKi) of 2.54.
For `NS(=O)(=O)NC[C@@H](Cc1ccccc1)C(=O)O` the value was 2.85.
For `O=C(O)[C@H](Cc1ccccc1)NS(=O)(=O)NCCc1ccccc1` the value was 3.74; for `CC(C)NS(=O)(=O)N[C@@H](Cc1ccccc1)C(=O)O`, 3.21.
With `NS(=O)(=O)N[C@H](Cc1ccccc1)C(=O)O` the figure was 3.33; with `CN([C@@H](Cc1ccccc1)C(=O)O)S(N)(=O)=O`, 2.46; with `O=C(O)[C@H](Cc1ccccc1)NS(=O)(=O)NCc1ccccc1`, 4.46.
Take `CNS(=O)(=O)N[C@@H](Cc1ccccc1)C(=O)O`: the pKi was 3.74.
